Test results from patent US6268381A, “Taxane derivatives” (Kabushiki Kaisha Yakult Honsha, priority 1997, dated 2001).
Values after ≈ are worked out from the molar mass of the structure shown.

How the values were obtained:
breast cancer = settings: Ann. int. Med. 111, 273, 1989; cited from earlier work
ovarian cancer = settings: Ann. int. Med. 111, 273, 1989; cited from earlier work
KB cells = experiment: Growth inhibitory activity against KB cells (Test 2, XTT assay); assay type: cell-based, human; settings: for GI50: Homo sapiens, 72 h, 3 days culture; for Activity ratio: relative to Taxol (1.00)
Experimental: Growth Inhibitory Activity of Taxane Derivatives (1)
As KB cells derived from a human mouth cancer, those purchased from Dainippon Pharmaceutical Co., Ltd. and stored in a lyophilized from at the Research Institute of that company was used. In Dulbecco's modified Eargle's medium containing 10% fetal bovine serum (product of NISSUI PHARMACEUTICAL CO., LTD.), the KB cells were cultured and maintained under the conditions of 5%, CO2 -ari and 37° C.
Each compound was used by dissolving it in DMSO at a concentration of 10 mg/mL.
On Day-1, cells which were in a logarithmic growth phase were inoculated at 2,000 cells/100 μl/well on 96-well microtiter plates (Falcon #3072) by using a phenol-red-free culture medium with 10% fetal bovine serum contained therein (Dulbecco's modified Eargle's medium (Sigma)), and were cultured overnight. On Day 0, the compounds each of which had been diluted to 0.03 to 10,000 ng/mL with the same culture medium were added in 100 μl aliquots to the individual wells, and the cells were cultured for 3 days. Three wells were used per each drug concentration. Each plate was provided with three blank wells containing only the culture medium and also with eight wells as a drug-untreated control.
Upon use, XTT (Sigma) was dissolved at a concentration of 1 mg/mL in each culture medium which was free of serum. Phenodin methosulfate (Sigma) dissolved at a concentration of 5 mM in PBS was added to the resulting solution at a volume ratio of 1/200. To each well, the solution so prepared was added in an amount of 50 μl per well. Subsequent to culture for 4 hours, OD was measured at 450 nm by ELISA.
Calculation of 50% Growth Inhibitory Concentration (GI50)
GI50 was calculated by interpolation from a concentration-growth inhibition rate (GIR) curve. GIR was determined in accordance with the following formula: [formula]

[1] = Solubility test of water-soluble taxane derivatives (Test 1, HPLC); assay type: physicochemical; settings: purified water + 1.05 eq. 0.1N hydrochloric acid, shaken 2 hours at room temperature
Experimental: Solubilities of Novel Water-soluble Taxane Derivatives
I) Preparation of a calibration curve
Compound (1-4) was weighed in an amount of 2.3 mg, to which 2.3 mL of acetonitrile was added so that the compound was dissolved to provide a standard solution. Using a 10 μL portion of the standard solution, the test was conducted by HPLC (operation conditions 1). The peak area of Compound (1-4), which had been obtained from the chromatogram of the standard solution, was measured by automated integration. The peak area obtained as an average of three measurements was plotted against the amount (10 μg) of Compound (1-4) per 10 μL, whereby a calibration curve was prepared.
Calibration curve of Compound (1-4): Y =1.518 ×10^-5 X [X: peak area, Y: amount (μg) of Compound (1-4)] [HPLC operation conditions 1] Column: Inertsil ODS-2 (5-250), 40 deg. Mobile phase: 0.01M KH2 PO4 --CH3 CN (3:2). Flow rate: 1.0 mL/min. Detection: Ultraviolet absorption photometer (225 nm), 0.2 AUFS.
II) Solubility test of Compound (1-4):
Compound (1-4) was weighed in an amount of 3.7 mg and then suspended in 2.0 mL of purified water. To the resulting suspension, 41.3 μL (1.05 eq.) of 0.1N hydrochloric acid was added. […] From the area obtained as an average of three measurements, the solubility of the compound (1-4) was determined. […]

CC(=O)O[C@H]1C(=O)[C@@]2(C)[C@H]([C@H](OC(=O)c3ccccc3)[C@]3(O)C[C@H](OC(=O)[C@H](O)[C@@H](NC(=O)c4ccccc4)c4ccccc4)C(C)=C1C3(C)C)[C@]1(OC(C)=O)CO[C@@H]1C[C@@H]2O [Taxol]
Efficacy against breast cancer (breast cancer): high efficacy | Efficacy against ovarian cancer (ovarian cancer): high efficacy | GI50 (KB cells): 1.3 ng/mL (≈ 1.52 nM)

CCCN(CCC)C1CCN(C(=O)O[C@H]2C(=O)[C@@]3(C)[C@H]([C@H](OC(=O)c4ccccc4)[C@]4(O)C[C@H](OC(=O)[C@H](O)[C@@H](NC(=O)OC(C)(C)C)c5ccco5)C(C)=C2C4(C)C)[C@]2(OC(C)=O)CO[C@@H]2C[C@@H]3O)CC1 [Compound 1-3, 13-0-[3-(tert-Butoxycarbonylamino)-3-(2-furyl)-2-hydroxypropionyl]-10-0-(4-dipropylaminopiperidinocarbonyl)-10-deacetylbaccatin III]
GI50 (KB cells): 0.43 ng/mL (≈ 0.427 nM) | Activity ratio (KB cells): 3.02

CC(=O)O[C@@]12CO[C@@H]1C[C@H](O)[C@@]1(C)C(=O)[C@H](OC(=O)N3CCN(C)CC3)C3=C(C)[C@@H](OC(=O)[C@H](O)[C@@H](NC(=O)OC(C)(C)C)c4ccoc4)C[C@@](O)([C@@H](OC(=O)c4ccccc4)[C@H]21)C3(C)C [Compound 1-2]
GI50 (KB cells): 0.28 ng/mL (≈ 0.303 nM) | Activity ratio (KB cells): 4.64

CCN1CCN(C(=O)O[C@H]2C(=O)[C@@]3(C)[C@H]([C@H](OC(=O)c4ccccc4)[C@]4(O)C[C@H](OC(=O)[C@H](O)[C@@H](NC(=O)OC(C)(C)C)c5ccco5)C(C)=C2C4(C)C)[C@]2(OC(C)=O)CO[C@@H]2C[C@@H]3O)CC1 [Compound 1-4, 13-0-[3-(tert-Butoxycarbonylamino)-3-(2-furyl)-2-hydroxypropionyl]-10-0-(4-ethylpipezinocarbonyl)-10-deacetylbaccatin III]
Amount dissolved ([1]; average of three measurements): 7.87 μg/5 μL | solubility at 2 h ([1]; water + 0.1n hcl): 1570 µg/mL | GI50 (KB cells): 0.23 ng/mL (≈ 0.245 nM) | Activity ratio (KB cells): 5.65

CC(=O)O[C@@]12CO[C@@H]1C[C@H](O)[C@@]1(C)C(=O)[C@H](OC(=O)N3CCC(N4CCCCC4)CC3)C3=C(C)[C@@H](OC(=O)[C@H](O)[C@@H](NC(=O)OC(C)(C)C)c4ccoc4)C[C@@](O)([C@@H](OC(=O)c4ccccc4)[C@H]21)C3(C)C [Compound 1-1, 13-0-[3-(tert-Butoxycarbonylamino)-3-(3-furyl)-2-hydroxypropionyl]-10-0-(4-piperidinopiperidinocarbonyl)-10-deacetylbaccatin III]
GI50 (KB cells): 0.48 ng/mL (≈ 0.484 nM) | Activity ratio (KB cells): 2.70
